Entries after “also recorded” stand apart in the source; their conditions may differ.

We go through four substances from patent US20260139017A1, “COMPOSITIONS AND METHODS USING REELIN IN ALZHEIMER'S DISEASE” (The General Hospital Corporation, priority 2022, published 2026).

Assay [1] relates to human retinal endothelial cells. The assay can be described thus: GFP mRNA cargo uptake with CTR peptide in retinal endothelial cells. The class given is cell-based. The following applies: 5 μg mRNA mixed with peptide, 24 hours. Here is the method: To evaluate this, HMRECs were cultured in a 24 well plate until 80% confluency complete endothelial growth media 2 (EGM-2, Lonza, Switzerland). For the treatments, 5 μg of mRNA were added to all the formulations. We prepared mRNA/peptide conjugates by mixing each amount of peptide ([…]) (SEQ ID NO:59) and mRNA prior to dilution in EGM-2. HMRECs were cultured with treatment media for 24 hours followed by fluorescence measurements in a microplate reader Synergy H1 (Biotek, VT) upon exciting at 482 nm and recording emission at 520 nm.

Assay [2] in a line: Heparin-sepharose affinity column chromatography, NaCl step gradient. The class given is binding. Here is the method:
We tested changes in binding to heparin of RELN variants chromatographically using an optimized version of a protocol previously published by our laboratory (1). Briefly, after equilibration of the heparin column (BioVision 6554-1) at R.T., columns were washed with five volumes of degassed 20 mM TRIS-HCl buffer (pH 7.5). Recombinant C-terminus RELN peptides were produced and purified by Innovagen (Sweden): (WT) […](SEQ ID NO:56), and (H3447R) […](SEQ ID NO:53). One mL of 50 μg/mL peptide (H3447 or WT, and H3447R) was recycled through the column five times and the last flow through collected for further analysis. The column was washed five times with the same buffer and the protein eluted using a 0.05 M step gradient of NaCl in 20 mM Tris-HCl (0-1M, one mL per fraction). To ensure the complete release of the protein, the column was washed with five M NaCl 20 mM Tris-HCl. Three independent experiments were conducted for C-terminus RELN WT and H3447R. All eluted fractions were analyzed spectroscopically by reading the absorbance at 280 nm using Nanodrop 2000 Spectrophotometer. Blank corrected fractions were subsequently analyzed using GraphPad Prism 8.
To assess Reelin-heparin binding affinity, Reelin variants were run on a heparin column with steps of 0.05M in a range of 0.05-1M NaCl over 20 1 mL column volumes in 20 mM Tris HCl, as described in Arboleda et. al 2019 (2). Sample fractions were eluted at an increasing NaCl step size to determine the ionic strength needed to disrupt the binding between Reelin and heparin. Therefore, the stronger the interaction, the higher concentration of salt would be needed to disrupt the bond.

The target of the next assay is T1, VLDLr (Homo sapiens, UniProt P98155).
T1 construct: purchased R&D 8444-VL
As to the kind of experiment: ELISA cell-free binding of RELN variants to VLDLr. Here is the method: (§1) Enzyme-linked immunosorbent assay (ELISA) was used to quantify changes in binding of RELN variants (media-derived full-length or CTR-RELN) to either VLDLr or ApoEr2 following an optimized version of a previously published protocol (6). Briefly, ELISA strips (DY008, R&D Systems) were coated with one ng/μL (100 μL/well) of VLDLr (8444-VL, R&D) or ApoEr2 (TP320903, OnGene) receptors diluted in 25 mM Tris HCl, 140 mM NaCl, […], two mM CaCl2), pH 7.4 (TBS-C buffer). After 18 h at four ° C. incubation, plates were blocked one h with three % BSA (22070008-6, Bioworld), 0.05% Tween-20 (Sigma Aldrich) TBS-C buffer. We assessed binding via incubation with 100 μL/well of serial dilutions of recombinant RELN protein (Ser1221-Gln2666, 8546-MR-050, R&D) or RELN variants in TBS-C buffer for one hour at room temperature. For detection, we used goat anti-mouse RELN primary antibody (LS-C793521-100, LS-Bio, 1:2,000, 100 μL/well) as primary antibody for one h at R.T. and (1:10,000; 100 μL/well, donkey anti-goat IgG H&L, HRP, ab6885, Abcam) as secondary antibody for 30 min. at R.T. Between each of the previous steps, plates were washed four times with TBS-C buffer (200 μL/well). Plates were washed three times prior to initiating the colorimetric reaction (DY008, R&D Systems). Stop solution (50 μL/well, DY008, R&D Systems) was added upon five min. incubation and the absorbance of the samples was measured at 450 nm using the Synergy 2 microplate reader (BioTek Instruments). Processing and analysis of the data was done using Gen5 1.11 software and GraphPad Prism, respectively.
On the technique in general: In an ELISA, binding on a coated surface is turned into a signal by an enzyme label.

The next assay deals with T2, APOER2 (Homo sapiens, UniProt Q14114).
T2 construct: purchased OnGene (so in the source)
T2 sequence (Q14114 33-963): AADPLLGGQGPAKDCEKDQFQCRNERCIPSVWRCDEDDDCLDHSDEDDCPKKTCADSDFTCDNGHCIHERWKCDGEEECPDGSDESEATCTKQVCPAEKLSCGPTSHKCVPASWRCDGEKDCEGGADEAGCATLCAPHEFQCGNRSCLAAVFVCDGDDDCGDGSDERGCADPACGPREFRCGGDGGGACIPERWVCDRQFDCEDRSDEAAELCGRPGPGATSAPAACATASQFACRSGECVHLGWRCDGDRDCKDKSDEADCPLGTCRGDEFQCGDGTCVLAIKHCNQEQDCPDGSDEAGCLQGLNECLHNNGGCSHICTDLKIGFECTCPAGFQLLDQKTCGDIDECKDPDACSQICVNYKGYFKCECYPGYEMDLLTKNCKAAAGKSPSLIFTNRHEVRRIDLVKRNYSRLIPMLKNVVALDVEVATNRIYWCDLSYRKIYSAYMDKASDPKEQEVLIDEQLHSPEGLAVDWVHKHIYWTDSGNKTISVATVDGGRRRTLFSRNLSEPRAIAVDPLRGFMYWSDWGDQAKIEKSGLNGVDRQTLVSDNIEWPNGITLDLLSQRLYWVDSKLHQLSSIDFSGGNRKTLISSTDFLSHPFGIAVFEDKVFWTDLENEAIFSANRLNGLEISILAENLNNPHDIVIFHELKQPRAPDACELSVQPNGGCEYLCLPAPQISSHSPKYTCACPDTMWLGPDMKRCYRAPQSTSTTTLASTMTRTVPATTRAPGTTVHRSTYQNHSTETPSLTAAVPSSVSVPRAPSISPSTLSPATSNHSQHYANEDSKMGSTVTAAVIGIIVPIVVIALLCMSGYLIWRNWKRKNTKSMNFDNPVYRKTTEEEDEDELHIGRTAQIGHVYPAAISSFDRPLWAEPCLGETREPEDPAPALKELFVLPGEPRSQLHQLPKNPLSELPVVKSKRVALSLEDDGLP
As to the kind of experiment: ELISA cell-free binding of RELN variants to ApoEr2. Here is the method: as §1

The target in another assay is T3, Aβ42 (Homo sapiens, UniProt P05067).
T3 construct: SensoLyte ThT O-Amyloid (1-42) Aggregation kit
The assay can be described thus: Thioflavin T (ThT) Aβ aggregation assay. The class given is biochemical. The following applies: Aβ42 55 μM, 10 μM peptide, vs Aβ alone. Here is the method: Therefore, the ThT assay can be used to quantify AB aggregation using previously developed methods (40).
We incubated CTR-RELN with Aβ and monitored aggregation using a ThioflavinT fluorescence assay normalized to the maximum ThT emission of Aβ only. We also assayed Aβ in the presence of morin, a known inhibitor (41), as a […]. Long and short WT and H3447R RELN CTR peptides were included to better understand the potential role of the H3447R mutation in amyloid pathology (FIGS. 14 and 15. Negative controls included long and short RELN CTR peptides with neutrally charged AAs (histidines) in place of basic AAs in the alpha- and beta-GAG binding sites.
A Thioflavin T (ThT) assay was also performed using synthetic Reelin peptides to assess the differential effects of these proteins on Aβ42 aggregation in vitro using Thioflavin T (SensoLyte ThT O-Amyloid (1-42) Aggregation kit, catalog no. ΔS-72214). Aβ42 was added to a final concentration of 55 μM in solutions of 10 μM of Reelin peptide variants in a transparent, no-binding 96-well plate. Samples were then mixed with 2 mM Thioflavin T dye and fluorescence was read at excitation wavelength/emission wavelength (Ex/Em)=440/484 nm at intermittent time intervals over 2 h. The plate was kept at 37° C. with 15 s shaking between reads. […] In general, it appears that the RELN Cterm domain is highly unstructured. […] If the mini-RELN includes the C-term domain only without a receptor binding domain then the protection will not involve signaling, but will still involve direct interactions with tau. If the mini-RELN includes the C-term domain and the receptor binding domain, it will have at least two protective mechanisms, namely RELN signaling and direct interactions with tau.

Assay [3] is described as follows: Isothermal titration calorimetry (ITC) of CTR-RELN with heparin. The following applies: titrated with 5 μM heparin, vs WT. The class given is binding. (ITC needs no label: the signal is the heat of the interaction.)
In a further assay the test system is pDAB1 (Tyr232). The assay can be described thus: HRECs treated 5 minutes with HEK 293T-derived mini-RELN media, pDAB1 western blot. The class given is cell-based, human. To be noted: HEK 293T-derived media 1:1, 1:4, 1:14, 5 minutes. Here is the method: The effect of in vitro treatment with RELN or miniRELN protein was also evaluated. HRECs were cultured in EBM-2 media enriched with EGM-2 Single Quots (Lonza) at 37° C. and 5% CO2 and experimentally tested at passage 7. 24 h prior experiment, cells were plated on a 6-well plate at 500,000 cells/mL. Two hours before the experiment, the cells were washed with PBS to remove residual growth media and then incubated with a starving media including EBM-2, 1% GlutaMax+0,2% Normicin. Treatments was conducted using media derived from HEK 293T cells transiently transfected for 24 h with different mini-RELN constructs in the presence of Lipofectamine 2000. […] Total protein levels were quantified via BCA assay. […] We detected pDAB1 (Tyr232; 1:1000, rabbit, #3325 Cell signaling), and Beta actin (1:5000, mouse, #66009-1-Ig, Proteintech. Antibodies were diluted using Intercept® (TBS) Blocking Buffer and incubated overnight at 4C under gentle shaking. Prior secondary antibody incubation, membranes were washes 2 times using TBS-T for 10 minutes. As secondary antibodies we used IR Dye 800n CW Goat-anti-Rabbit (925-32211, Licor) and IR Dye 680 CW Goat-anti-Mouse (925-68070, Licor) both diluted 1:10000 in blocking buffer for 1 h at room temperature under gentle shaking. Membranes were washed three times with TBS-T prior IR detection using Odyssey imager. […]
For orientation: Immunoblotting shows a protein as a band on a membrane.

T3 sequence (P05067 672-713 limits assumed): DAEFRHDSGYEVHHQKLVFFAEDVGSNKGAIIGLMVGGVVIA

On to RKQNYMMNFSRQHGLRHFYNRRRR [WT short], for which the “GFP expression from mRNA cargo” value in assay [1] is listed as “increase in expression”.

As to “RKQNYMMNFSRQHGLRHFYNRRRRSLRRYP [CTR-RELN WT]”, in assay [2] (0.05 M NaCl step gradient in 20 mM Tris HCl, UV 280 nm), the “NaCl concentration of peak eluted fraction from heparin column” value stood at 0.55 M NaCl. Moreover, in assay [2] (affinity chromatography, NaCl gradient), the “binding to and release from heparin column” value is listed as “bound to heparin”. For the same substance, the “binding to VLDLr” value at VLDLr is given as “unable to bind directly”. The “binding to APOER2” value on APOER2 is recorded as “unable to bind directly”. In addition, the entries for the “Aβ aggregation (ThT fluorescence)” value on Aβ42 (listed as Cterm domain of RELN) and at Aβ42 (listed as RELN CTR) were “reduced amyloid aggregation” and “decreased amyloid aggregation; also recorded: significantly reduced amyloid aggregation; also recorded: reduces Aβ aggregation”, respectively.

As to RKQNYMMNFSRQHGLRRFYNRRRR [H3447R short], the “thermodynamics of heparin interaction” value in assay [3] is on record as “more negative Gibbs free energy”.

With “IL2signalpeptide-6XHistag(SEQ ID NO: 62)-hReelin(AALeu1220-Ile2660) C-term-REELIN H3447R [225SU]”, the “pDAB1 / Dab1 signaling activation” value in the assay on pDAB1 (Tyr232) is on record as “efficacy”.
